Measured values reported in patent US10738061B2, “Inhibitors of RAD52 recombination protein and methods using same” (Drexel University, priority 2015, dated 2020).

How the values were obtained:
RAD52 [1] = target: T1, RAD52 (Homo sapiens, UniProt P43351); assay: D-loop formation (DNA pairing) by RAD52; assay type: biochemical; conditions: three independent repeats, read-out: Inhibition of DNA pairing (D-loop formation), IC50
T1 construct: made in house
T1 sequence (P43351 1-418): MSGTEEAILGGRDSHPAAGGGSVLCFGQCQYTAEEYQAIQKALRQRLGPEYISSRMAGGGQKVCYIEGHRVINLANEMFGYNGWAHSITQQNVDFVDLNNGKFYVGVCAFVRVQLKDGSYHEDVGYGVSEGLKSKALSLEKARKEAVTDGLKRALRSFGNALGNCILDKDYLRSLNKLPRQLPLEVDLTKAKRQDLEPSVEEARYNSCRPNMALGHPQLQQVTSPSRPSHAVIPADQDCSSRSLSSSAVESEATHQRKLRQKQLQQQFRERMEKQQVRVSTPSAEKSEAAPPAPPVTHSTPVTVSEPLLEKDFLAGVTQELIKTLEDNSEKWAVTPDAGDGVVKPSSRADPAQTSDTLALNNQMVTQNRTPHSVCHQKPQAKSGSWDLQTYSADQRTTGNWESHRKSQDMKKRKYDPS
Protocol: Cisplatin was purchased from Sigma-Aldrich. Human RAD52 and RAD51 were purified as described (Bugreev et al., 2005, Mol. Cell. Biol. 33, 387-395). The oligonucleotides (Table 2) were purchased from IDT, Inc and further purified by electrophoresis (Rossi et al., 2010, Methods 51, 336-346). Supercoiled pUC19 plasmid DNA was purified using Qiagen kits. All DNA concentrations are expressed as moles of nucleotide.
To form RAD52 nucleoprotein complexes, RAD52 (0.45 μM) was incubated with a ^32P-labeled ssDNA (oligo 90/SEQ ID NO: 4) (3 μM, nt) in buffer containing 25 mM Tris-Acetate, pH 7.5, 100 μg·ml-1 BSA, 0.3 mM magnesium acetate, and 2 mM DTT at 37° C. for 15 min. To form RAD51 nucleoprotein filament, RAD51 (1 μM) was incubated with ^32P-labeled ssDNA (3 μM, nt) in buffer containing 25 mM Tris-Acetate, pH 7.5, 100 μg·ml-1 BSA, 1 mM calcium chloride, 1 mM ATP and 2 mM DTT for 15 min at 37° C. Then inhibitors were added to both reactions and incubation continued for 15 min at 37° C. D-Loop formation was initiated by addition of supercoiled pUC19 DNA (50 μM, nucleotides) and was carried out 15 min at 37° C. The reactions were stopped and deproteinized by the addition of 1.5% SDS and proteinase K (0.8 mg/ml) for 15 min at 37° C., mixed with a 0.10 volume of loading buffer (70% glycerol, 0.1% bromphenol blue), and analyzed by electrophoresis in 1% agarose gels in TAE buffer (40 mM Tris acetate, pH 8.3, and 1 mM EDTA) at 5 V/cm for 3 h. The gels were dried on DEAE-81 paper (Whatman) and the yield of D-loops quantified using a Storm 840 PhosphorImager and ImageQuant 5.2 (GE Healthcare). The D-loop yield was expressed as a percentage of plasmid DNA carrying D-loops relative to the total plasmid DNA.
IC50 values were calculated using GraphPad Prism V5.0 software. The data were obtained from three independent repeats of experiments.
The inhibitory effect of the 70 selected compounds were tested using the D-loop assay, in which RAD52 promotes pairing between 32P-labeled ssDNA and homologous supercoiled plasmid pUC19 DNA (FIG. 1D); the product of the reaction, D-loops, were analyzed by electrophoresis in 1% agarose gels. […] Then, the effects of each of the 17 compounds on RAD52-dependent D-loop formation were measured in a concentration dependent manner.

RAD52 [2] = target: T1, RAD52; assay: Fluorescence-quenching assay for RAD52 ssDNA annealing (HTS); assay type: biochemical
Protocol: Tailed dsDNA substrate was prepared by thermal annealing of ssDNA oligonucleotides 337-F and 1337-BHQ1 (SEQ ID NO: 2) containing Fluorescein and Black Hole Quencher 1 residues at the 5′ and 3′ end, respectively. […] The fluorescence intensity was measured in a 3-mm quartz cuvette (Starna Cells) using a FluoroMax-3 (HORIBA) fluorimeter with 492 nm excitation wavelength and 520 nm emission wavelength at 30° C. for at least 2000 s.
The HTS was performed using the 8 channel BioRAPTR 1536 (Beckman) for reagent dispensing. […] Wells containing no RAD52 enzyme were used to as positive control, and data were analyzed using Genedata.
A fluorescence-quenching assay was used to screen for inhibitors of RAD52 ssDNA annealing activity (FIGS. 1A-1E). […] Annealing promoted by RAD52 between ssDNA and tdsDNA led to displacement of the FLU-carrying DNA strand from the tdsDNA and in an increase in fluorescence due to secession of fluorescence quenching by the BHQ1 group (FIG. 1B).
The fluorescence-quenching assay was optimized for 1,536 well plates (Z′ Avg=0,64). […] The hits were further analyzed for a concentration dependence in inhibiting of RAD52 and by testing their DNA binding affinity using the acridine orange assay.

[3] = test system: MDA-MB-436 (BRCA1-) and MDA-MB-436 (BRCA1+) cells; assay: Clonogenic survival assay; assay type: cell-based, Human
Protocol: (§1) MDA-MB-436 cells were cultured in RPMI+10% FBS. BRCA-proficient and BRCA-deficient cells were plated on day 0 in triplicate at 5,000 cells/well. […] Cells were counted on day 4 on a hemocytometer, using Trypan Blue exclusion, and immediately were plated in a clonogenic assay at a density of 500 cells/well in a 6 well plate, in RPMI+10% FBS. After two weeks, the colonies were fixed/stained with 0.05% of 10 mg/ml ethidium bromide in 50% ethanol and visualized with Alphaimager gel imager (Alpha Innotech).
Likewise, the effects of RAD52 inhibitors on the growth of BRCA1-deficient (UWB1.289 BRCA1^−) and BRCA1-proficient (UWB1.289 BRCA^+) cells were tested. 7 out 14 tested RAD52 inhibitors preferentially suppress the growth of BRCA1-deficient cells. Importantly, these 7 compounds included the 5 compounds that inhibited the growth of BRCA2-deficient cells (FIGS. 3E-3H). The effects of the 14 RAD52 inhibitors were tested on the survival of another BRCA1-deficient cells, and MDA-MB-436 cells. […] BRCA1-deficiency in these cells is due to constitutive downregulation of this protein.

[4] = test system: Capan-1 (BRCA2-) and BxPC3 (BRCA2+) cells; assay: Luminescent cell viability assay, BRCA2-deficient versus proficient cells; assay type: cell-based, Human; conditions: 9 days exposure
Protocol: (§2) BxPC3 cells were kept in RPMI 1640 (ATCC) media supplemented with 10% FBS (Gibco). Capan-1/BxPC3 Capan-1 cells were kept in IMDM (ATCC) media containing 20% FBS (GIBCO). […] cells were kept in 48.5% RPMI1640 (ATCC), 48.5% MEGM (Clonetics/Lonza, MEGM kit, CC-3150) and 3% FBS (GIBCO) respectively. Cells in log-phase were harvested and 100 μl cell suspensions were replated in a 96-well plate with a final density of 4000 cells/well. After overnight growth, cells were treated with indicated concentrations of compounds. Media containing the invariant concentration of compounds were refreshed every 3 days until cells were finally lysed by 30 μl/well of Promega CellTiter-Glo reagents and read on a Promega GloMax 96 reader on day 10 (9 days exposure).
(§3) BxPC3 cells were kept in RPMI 1640 (ATCC) media supplemented with 10% FBS (Gibco); Capan-1 cells were kept in IMDM (ATCC) media containing 20% FBS (GIBCO); UWB1.298 and UWB1.298 (BRCA1+) cells were kept in 48.5% RPMI1640 (ATCC), 48.5% MEGM (Clonetics/Lonza, MEGM kit, CC-3150) and 3% FBS (GIBCO) respectively. […] Media containing the invariant concentration of compounds were refreshed every 3 days until cells were finally lysed by 30 μl/well of Promega CellTiter-Glo reagents and read on a Promega GloMax 96 reader on day 10 (9 days exposure). […]

[5] = test system: UWB1.289 (BRCA1-) and UWB1.289 (+BRCA1) cells; assay: Luminescent cell viability assay, BRCA1-deficient versus proficient cells; assay type: cell-based, Human; conditions: 9 days exposure
Protocol: as §2, §3

[6] = test system: BRCA1/2-deficient cell lines; assay: Growth of BRCA1/2-deficient cell lines (summary over tested lines); assay type: cell-based, Human
Protocol: as §2
as §2, with “(Gibco);” for “(Gibco). Capan-1/BxPC3”, “(GIBCO);” for “(GIBCO).”, “exposure). Promega CellTiter-Glo protocol is available on the web: www dot promega dot com/resources/protocols/technical-bulletins/0/celltiter-glo-luminescent-cell-viability-assay-protocol/” for “exposure).”
as §1, with “After two weeks, the colonies were fixed/stained with 0.05% of 10 mg/ml ethidium bromide in 50% ethanol and visualized with Alphaimager gel imager (Alpha Innotech).” left out

Row | Compound | IC50 (RAD52 [1]) [µM] | IC50 (RAD52 [2]) [µM] | effect on survival of BRCA1-deficient MDA-MB-436 cells versus MDA-MB-436 (BRCA1+) [3] | effect on growth of BRCA2-deficient Capan-1 cells versus BxPC3 [4] | effect on growth of BRCA1-deficient UWB1.289 cells versus UWB1.289 (+BRCA1) [5] | preferential inhibition of BRCA1/2-deficient cell lines (summary) [6]
1 | CCN(CC)CCCN(Cc1cc2cc3c(cc2[nH]c1=O)OCO3)C(=S)NCCCN(C)C [D-A13, 1-(3-(diethylamino)propyl)-3-(3-(dimethylamino)propyl)-1-((6-oxo-5,6-dihydro-[1,3]dioxolo[4,5-g]quinolin-7-yl)methyl)thiourea] | 13.6 ± 0.64 | 5.2 | – | – | – | –
2 | COc1ccc(-c2nc(C(=O)NCCCN3CCOCC3)cc3c2[nH]c2ccccc23)cc1OC [D-A19, 1-(3,4-dimethoxyphenyl)-N-(3-morpholinopropyl)-9H-pyrido[3,4-b]indole-3-carboxamide] | 7.2 ± 0.28 | 4.8 | – | – | – | –
3 | Cc1c(C(=O)Nc2ccc(S(=O)(=O)N(C)C3CCN(C)CC3)cc2)oc2c(Cl)cccc12 [D-A21, 7-chloro-3-methyl-N-(4-(N-methyl-N-(1-methylpiperidin-4-yl)sulfamoyl)phenyl) benzofuran-2-carboxamide] | 16.2 ± 0.42 | 9.8 | – | – | – | –
4 | Cc1ccc(C(=O)c2oc3ccc(Cl)cc3c2NC(=O)CN2CCN(C)CC2)cc1 [D-C17, N-(5-chloro-2-(4-methylbenzoyl)benzofuran-3-yl)-2-(4-methylpiperazin-1-yl)acetamide] | 17.6 ± 0.78 | 6 | – | – | – | –
5 | Cc1ccc(-c2nc(C(=O)NCCCN3CCOCC3)cc3c2[nH]c2ccccc23)cc1 [D-C19, N-(3-morpholinopropyl)-1-(p-tolyl)-9H-pyrid[3,4-b]indole-3-carboxamide] | 4.3 ± 0.35 | 2 | – | – | – | –
6 | CCN1CCN(CCCNC(=S)Nc2ccc3nc(N(C)CCN)cc(C)c3c2)CC1 [D-E05, 1-(2-((2-aminoethyl)(methyl)amino)-4-methylquinolin-6-yl)-3-(3-(4-ethylpiperazin-1-yl)propyl)thiourea] | 11.3 ± 0.35 | 1.7 | – | – | – | –
7 | CCCCN(CC)CCCNC(=S)Nc1ccc2nc(N3CCN(C)CC3)cc(C)c2c1 [D-G09, 1-(3-(butyl(ethyl)amino)propyl)-3-(4-methyl-2-(4-methylpiperazin-1-yl)quinolin-6-yl)thiourea] | 14.8 ± 2.47 | 2 | showed an inhibitory effect | showed an inhibitory effect | showed an inhibitory effect | –
8 | CCCN(CCC)CCCNC(=S)Nc1ccc2nc(N3CCN(C)CC3)cc(C)c2c1 [D-G11, 1-(3-(dipropylamino)propyl)-3-(4-methyl-2-(4-methylpiperazin-1-yl)quinolin-6-yl)thiourea] | 8.9 ± 1.6 | 6 | – | showed activity | showed activity | –
9 | Cc1cc(N2CCN(C)CC2)nc2ccc(NC(=S)NCCCN3CCN(C)CC3)cc12 [D-I01, 1-(4-methyl-2-(4-methylpiperazin-1-yl)quinolin-6-yl)-3-(3-(4-methylpiperazin-1-yl)propyl)thiourea] | 15.4 ± 0.57 | 3.6 | – | – | – | –
10 | COc1ccc(OC)c(Nc2nc(NCCO)c3ccccc3n2)c1 [D-I05, 2-((2-((2,5-dimethoxyphenyl)amino)quinazolin-4-yl)amino)ethan-1-ol] | 8.8 ± 0.42 | 4.3 | – | – | – | preferentially inhibited at least two BRCA1/2-deficient cell lines
11 | CN1CCN(CCCNC(=O)c2cc3c(-c4ccc(Cl)cc4)nn(C)c3s2)CC1 [D-I07, 3-(4-chlorophenyl)-1-methyl-N-(3-(4-methylpiperazin-1-yl)propyl)-1H-thieno[2,3-c]pyrazole-5-carboxamide] | 2.7 ± 0.35 | 2 | – | – | – | –
12 | CCCCN(CC)CCNC(=O)c1cc2c(-c3ccc(Cl)cc3)nn(C)c2s1 [D-I09, N-(2-(butyl(ethyl)amino)ethyl)-3-(4-chlorophenyl)-1-methyl-1H-thieno[2,3-c]pyrazole-5-carboxamide] | 10.6 ± 1.4 | 6.8 | – | – | – | –
13 | Cn1nc(-c2ccc(Cl)cc2)c2cc(C(=O)NCCCN3CCCCCC3)sc21 [D-I11, N-(3-(azepan-1-yl)propyl)-3-(4-chlorophenyl)-1-methyl-1H-thieno[2,3-c]pyrazole-5-carboxamide] | 6.7 ± 0.78 | 4.1 | – | – | – | –
14 | Cn1nc(-c2ccc(Cl)cc2)c2cc(C(=O)NCCCN3CCCC3)sc21 [D-I19, 3-(4-chlorophenyl)-1-methyl-N-(3-(pyrrolidin-1-yl)propyl)-1H-thieno[2,3-c]pyrazole-5-carboxamide] | 4.1 ± 0.14 | 3.5 | – | – | – | –
15 | COc1ccccc1Nc1nc(NCCCO)c2ccccc2n1 [D-K17, 3-((2-((2-methoxyphenyl)amino)quina-zolin-4-yl)amino)propan-1-ol] | 4.8 ± 0.85 | 2.9 | – | – | – | preferentially inhibited at least two BRCA1/2-deficient cell lines
